Measured values published in PubChem BioAssay AID624285 (Broad Institute, 2012).
Activity calls are given as the source filed them.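 How the source made its calls: active means signal-decreasing dose-response curve whose fitted half-maximal concentration is at or below twice the highest valid tested dose; inconclusive means flat fit at 30 to 70% signal loss, or poor fit; inactive means the rest.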

What follows are compounds tested on NIH3T3/HeLa viability, CellTiter-Glo ATP luminescence, 24 h (assay: cell viability loss after compound exposure – 24 h, luminescence, cherry-picked samples, cytotoxicity control for PDI inhibitor project, dose response (AID 624285)).
`COc1ccc(/C=C2\Sc3ccc(C(=O)NCCCN4CCCC4)cc3N(C)C2=O)cc1OC` showed an AC50 of 35.2 µM. `CC(=O)Oc1ccc(C2OC(=O)c3ccccc3N2C(C)=O)cc1` (stereo not given) was tested, and the AC50 was > 70 µM (inactive). For `CCOC(=O)C1(CCOc2ccccc2)CCN(Cc2ccccc2O)CC1`, the AC50 was > 70 µM (inactive). For `COCCN(CC(=O)Nc1ccccc1C(F)(F)F)C(=O)/C=C/c1cc(Cl)c2c(c1)OCCO2`, the AC50 was > 70 µM (inactive). For `Cc1noc(C)c1-c1ccc(C(=O)NCc2ccc(Cl)cc2)c2occc12`, the AC50 was > 70 µM (inactive). `CCOC(=O)Oc1c(OC)cc(C(=O)O[C@@H]2C[C@@H]3CN4CCc5c([nH]c6cc(OC)ccc56)[C@H]4C[C@@H]3[C@H](C(=O)OC)[C@H]2OC)cc1OC` gave an AC50 of 27.3 µM. For `O=C(NCCc1c[nH]c2ccccc12)/C(=C\c1cccnc1)NC(=O)c1ccccc1Br`, the AC50 was > 70 µM (inactive). For `Cc1cc(O)cc2c1C1CCC3(C)C(=O)CCC3C1C=C2` (stereo not given), the AC50 was > 70 µM (inactive). With `COc1ccc(-c2nnc3ccc(SCC(=O)Nc4nc5ccccc5s4)nn23)cc1OC` the AC50 was > 70 µM (inactive). With `O=C(COC(=O)c1ccccc1NC(=O)c1ccco1)NCCC1=CCCCC1` the AC50 was > 70 µM (inactive). `CCOC(=O)C1(CCOc2ccccc2)CCN(Cc2ccc(O)c(Cl)c2)CC1` was tested, and the AC50 was > 70 µM (inactive). With `Cc1c(O)ccc2c(CN3CCN(C/C=C/c4ccccc4)CC3)cc(=O)oc12` the AC50 was > 70 µM (inactive). With `C[C@]12CC[C@@H]3c4ccc(O)cc4C(=O)C[C@H]3[C@@H]1CC[C@@H]2O` the AC50 was > 70 µM (inactive). With `CCOc1cc(/C=C/C(=O)c2ccc(O)cc2)ccc1OCC(=O)N(C)C` the AC50 was 39.4 µM. In the case of `CC(C)Sc1nnc([C@H](Cc2c[nH]c3ccccc23)NC(=O)OC(C)(C)C)o1`, the AC50 is reported as > 70 µM (inactive). For `C[C@H]1CN([C@@H](C)CO)C(=O)Cc2cc(NC(=O)Nc3ccccc3)ccc2O[C@H]1CN(C)Cc1ccccc1`, the AC50 was > 70 µM (inactive). With `CCOC(=O)c1c(CN2CCOCC2)n(-c2ccccc2)c2ccc(O)cc12` the AC50 was > 70 µM (inactive). With `Cc1noc(C)c1S(=O)(=O)Nc1ccc2c(c1)CC(=O)N([C@@H](C)CO)C[C@@H](C)[C@@H](CN(C)S(=O)(=O)c1ccc(F)cc1)O2` the AC50 was > 70 µM (inactive). In the case of `C[C@@H]1CN([C@H](C)CO)C(=O)c2cccc(NS(C)(=O)=O)c2O[C@@H]1CN(C)Cc1ccc(Oc2ccccc2)cc1`, the AC50 is reported as > 70 µM (inactive). `O=c1cc(CN2CCN(S(=O)(=O)/C=C/c3ccccc3)CC2)c2ccc(O)cc2o1` was tested, and the AC50 was > 70 µM (inactive). In the case of `C[C@@H]1CN([C@@H](C)CO)C(=O)c2cc(NC(=O)Cc3cn(C)c4ccccc34)ccc2O[C@@H]1CN(C)S(=O)(=O)c1ccc(F)cc1`, the AC50 is reported as > 70 µM (inactive). With `CC[C@]12c3[nH]c4cc(-c5ccco5)ccc4c3CCN1C(=O)[C@@H](CC(=O)NCc1ccco1)C[C@@H]2C(=O)N1CCN(C(=O)c2ccco2)CC1` the AC50 was > 70 µM (inactive). For `CS(=O)(=O)c1ccc(C(=O)OCC(=O)N2CCN(CCC3CCCCC3)CC2)cc1[N+](=O)[O-]`, the AC50 was 3.32 µM. In the case of `COc1cccc2c1C(=O)c1c(O)c3c(c(O)c1C2=O)CC(O)(C(C)=NO)CC3OC1CC(N)C(O)C(C)O1` (stereo not given), the AC50 is reported as 5.56 µM. In the case of `COc1ccc(C[C@@H]2CN3C(=NC[C@@H]3Cc3ccc(O)cc3)N2C[C@H](C)NC(=O)CCC2CCCCC2)cc1`, the AC50 is reported as 18.8 µM. `Cc1sc(NC(=O)CCl)c(C(=O)c2ccccc2)c1C` was tested, and the AC50 was 15.4 µM. `CCOC(=O)c1c(CNCCN(CC)CC)n(C)c2cc(Br)c(OC)cc12` was tested, and the AC50 was > 70 µM (inactive). For `CCOC(=O)C1(CCOc2ccccc2)CCN(Cc2ccc(O)cc2)CC1`, the AC50 was > 70 µM (inactive). `O=C(Nc1nc2ccccc2s1)c1cccc(S(=O)(=O)N2CCc3ccccc32)c1` was tested, and the AC50 was > 70 µM (inactive). `Cc1ccc(S(=O)(=O)N(C)c2ccc(OC(=O)COc3ccccc3)cc2)cc1` was tested, and the AC50 was > 70 µM (inactive). For `NNC(=O)c1cc(-c2ccc(O)cc2)nc2ccc(Br)cc12`, the AC50 was > 70 µM (inactive). `CCOC(=O)C1=C(c2ccccc2)N=c2s/c(=C\c3cccc(O)c3)c(=O)n2C1c1cccs1` (stereo not given) showed an AC50 of 23 µM. `CCSc1nnc([C@H](Cc2c[nH]c3ccccc23)NC(=O)OC(C)(C)C)o1` was tested, and the AC50 was > 70 µM (inactive). Compound `C=CC[C@H](CC(=O)N(CCO)Cc1ccccc1)C(=O)N[C@H](COC(=O)[C@@H](CC=C)Cc1ccc(F)cc1)Cc1c[nH]c2ccccc12` has an AC50 of 30.8 µM. `CCN1C[C@]2(COC(=O)c3ccccc3N)CC[C@H](OC)C34[C@@H]5C[C@H]6[C@H](OC)[C@@H]5[C@](O)(C[C@@H]6OC)[C@@](O)([C@H]13)[C@@H](OC)[C@@H]42` was tested, and the AC50 was > 70 µM (inactive). For `CCOC(=O)c1c(CN(C)C)n(-c2ccccc2)c2cc(Br)c(O)cc12`, the AC50 was > 70 µM (inactive). Work on `CCOc1ccc(CCN2C(=O)C(=O)N([C@@H](CC(C)C)CN3CCC[C@@H]3CN3C(=O)C(=O)NC[C@@H]3Cc3ccccc3)C[C@@H]2Cc2ccc(O)cc2)cc1` yielded an AC50 of 38.1 µM. In the case of `Cc1ccc(N(Cc2ccccc2)C(=O)c2cccc(S(=O)(=O)N3CC(C)OC(C)C3)c2)cc1` (stereo not given), the AC50 is reported as > 70 µM (inactive). In the case of `Cc1cc(C(=O)Cn2nnc3ccccc3c2=O)c(C)n1-c1ccccc1F`, the AC50 is reported as > 70 µM (inactive). Compound `CCCCC(=O)OC1CCC2C3CCc4cc(O)ccc4C3CCC12C` (stereo not given) has an AC50 of 27.3 µM. `COc1ccc(/C=C2\CN(Cc3ccccc3)C/C(=C\c3ccc(OC)c(O)c3)C2=O)cc1O` gave an AC50 of 6.12 µM. `CN(C)CCCN(C(=O)c1ccc(S(=O)(=O)N2CCc3ccccc32)cc1)c1nc2c(Cl)cccc2s1` was tested, and the AC50 was 16.5 µM. `Cc1ccc2c(c1)Oc1ccc(NC(=O)CCl)cc1C(=O)N2` gave an AC50 of 8.51 µM. For `Cn1cnnc1Sc1ccc(/C=C/C(=O)c2ccc(O)cc2)cc1[N+](=O)[O-]`, the AC50 was 12.3 µM. `COc1ccc(Oc2ccc(/C=C/C(=O)c3ccc(O)cc3)cc2[N+](=O)[O-])cc1` was tested, and the AC50 was 12.4 µM. In the case of `O=C(Nc1nccs1)c1ccc(-c2ccccc2[N+](=O)[O-])o1`, the AC50 is reported as > 70 µM (inactive). In the case of `CCOC(=O)c1c(CN2CCOCC2)n(-c2ccccc2)c2cc(Br)c(O)cc12`, the AC50 is reported as > 70 µM (inactive). `CC[C@]12c3[nH]c4cc(-c5ccco5)ccc4c3CCN1C(=O)[C@@H](CC(=O)NCC13CC4CC(CC(C4)C1)C3)C[C@@H]2C(=O)N1CCN(C(=O)c2ccco2)CC1` was tested, and the AC50 was > 70 µM (inactive). `CCOc1cc(N2CCOCC2)c(OCC)cc1NC(=O)Cc1ccccc1OC` gave an AC50 of 39.5 µM. `Oc1cccc(-c2nc3c4c(ncn3n2)-c2ccccc2CC42CCCC2)c1` was tested, and the AC50 was 14.3 µM. For `COc1ccc(C2c3ccc(O)cc3Oc3ncn4nc(-c5cccnc5)nc4c32)cc1OC` (stereo not given), the AC50 was 30.6 µM. In the case of `Cc1cccn2c(CN(C)C3CCCc4ccccc43)c(C(=O)N3CCOCC3)nc12` (stereo not given), the AC50 is reported as > 70 µM (inactive). `CC(=O)Oc1ccccc1C(=O)C=Cc1cccc([N+](=O)[O-])c1` gave an AC50 of 5.89 µM. With `CCN1CCN(Cc2ccc(NC(=O)c3cc(NC(=O)c4cc(-c5ccc(OC)cc5)n[nH]4)cc(OC)c3)cc2C(F)(F)F)CC1` the AC50 was 6.45 µM. `O=C(CCS(=O)(=O)c1ccccc1)N(CCCN1CCOCC1)c1nc2ccccc2s1` gave an AC50 of 14.2 µM. `O=C(NCc1ccccc1CN1CCCC1)c1cc2ccccc2o1` was tested, and the AC50 was > 70 µM (inactive). In the case of `CC(=O)OC1CCC2C3CCC4=C(CC(F)C(=O)C4)C3CCC12C` (stereo not given), the AC50 is reported as > 70 µM (inactive). In the case of `CCOC(=O)C1(CCOc2ccccc2)CCN(Cc2cccc(O)c2)CC1`, the AC50 is reported as > 70 µM (inactive). In the case of `CC(=O)c1cc(-c2ccccc2)n(CC(=O)Nc2cccc(C)c2)c1C`, the AC50 is reported as > 70 µM (inactive). In the case of `C[C@]12CC[C@H]3C(=CCc4cc(O)ccc43)[C@@H]1CCC2=O`, the AC50 is reported as > 70 µM (inactive).
